Two molecules from US8232067B2, “Disrupting FCRN-albumin interactions” (Brigham & Women's Hospital, Inc., priority 2009, dated 2012) can be followed below.

The subject of one series is Balb/c mice. The experiment in a line: Mortality assay (1). It is filed as in vivo. Conditions: 12 mg of acetaminophen; mice deficient in FcRn compared to wild-type Balb/c mice. The method, then: Wild-type Balb/c mice and Balb/c mice deficient in FcRn were administered 12 mg of acetaminophen. The dose administered is equivalent to 42 g in a 70 kg human (84 tabs of 500 mg extra strength Tylenol™ (acetaminophen)).

Series [1] can be described thus: Serum and bile measurements after tail vein infusion (ELISA). Format: in vivo. The conditions noted are these: FcRn deficient mice vs wild-type, 24 hours after infusion. On the procedure: Human IgG and rat albumin were administered via the tail vein to wild-type (WT) or FcRn deficient (−/−) mice 24 hours prior to the harvest of serum and bile. For serum and bile measurements, mice were euthanized before blood was removed via the heart and the bile was removed via the gallbladder. Concentration of IgG and albumin were measured by ELISA. Similar results were obtained from bile collected via common bile duct cannulation.
After 24 hours, blood/serum and gallbladder bile were removed as described in Example 1.
On the technique in general: An ELISA detects its analyte on a solid surface through an enzyme-linked reagent.

`CC(=O)Nc1ccc(O)cc1` [acetaminophen]: the mortality result with Balb/c mice is “decreased mortality”.

“rat albumin: Rat serum albumin administered via the tail vein to mice”: in series [1], the “levels of rat albumin in the bile” value is reported as “elevated levels”.
